In patent US10858422B2, “Methods for treating systemic lupus erythematosus with an anti-apolipoprotein B antibody” (Abcentra, LLC, priority 2016, dated 2020):
Marks after values point to notes of the source that are not given here.

Experiments:
[1] = test system: MRL/lpr ApoE−/− mice; experiment: Flow cytometry of blood, spleen and lymph node cells after oral immunization; format: in vivo, mouse; settings: 30 μg/ml
[2] = test system: human PBMC; experiment: Death receptor activation of human PBMC: release of soluble death receptors, apoptosis; format: cell-based; settings: for release of Fas into culture medium / release of TNF-R1: healthy donor PBMC, Fas ligand 0.5 μg/ml, IL-1β 10 ng/ml, TNF 10 ng/ml, LPS 10 μg/ml
Description: PBMCs from SLE patients (n=6, x female and x male, age x+/−x years) and matched healthy controls (n=6, x female and x male, age x+/−x years) as well as from a healthy donor were isolated using FicollPaque Plus (GE healthcare, Waukesha, Wis., USA) density gradient centrifugation according to manufacturer's instructions. The cells from SLE patients and controls were resuspended in 40% autologous serum, 40% RPMI 1640 medium (Thermo Fisher Scientific, Waltham, Mass., USA) and 20% dimethyl sulfoxide (Sigma Aldrich, St. Louis, […]., USA) and frozen in liquid nitrogen.
(§1) Cells from healthy donors were seeded freshly at a density of 0.5×10^6 cells per well in complete RPMI (10 U/ml Penicillin/streptomycin, 1% L-glutamine, 1% sodium pyruvate, 1% Hepes and 0.1% mercaptoethanol) with 2% FBS (HyClone South Logan, Utah, USA). For death receptor activation, IL-1β, soluble Fas ligand, TNF (Peprotech, Rocky Hill, N.J., USA) and LPS (Sigma Aldrich) were used at a concentration of 10 ng/ml, 0.5 μg/ml, 10 ng/ml and 10 μg/ml respectively.
as §1, with “from a” for “from”, “donor” for “donors”, “TNFα” for “TNF”
Cell supernatants from death receptor activated PBMCs from a healthy donor and SLE patients/controls were used for measurement of soluble Fas, TNF-R1 and TRAIL-R2 with a magnetic bead system multiplex assay (R&D Systems, Minneapolis, Minn., USA) obtained by Luminex machine (Bio-Rad). For SLE patients and controls, TNF-R1 concentration was measured with ELISA (Abcam) according to manufacturer's recommendations.

[3] = test system: Spleen T-cells from gld.apoE−/− mice; experiment: Cytokine production from spleen T-cells activated by CD3/CD28; format: in vivo, mouse; settings: Avg; for IFN-γ production / IL-6 production / IL-10 production / IL-12 (p70) production: Normal Diet; for TNFα Production from Spleen T-cells: Western Diet
Experimental: Lymph nodes and spleen were harvested and weighed. Splenocytes were isolated and analyzed for T-regulatory cell populations by immunofluorescence staining and flow cytometry. Splenocytes were also cultured and T-cells activated in vitro by Mouse T-Activator CD3/CD28. Production of cytokines INF-γ, IL-6, IL-10, IL-12, and […] by activated T-cells were assessed with immunoassays.
CVX-12 immunization is hypothesized to impact atherosclerosis via modulation of T-cell cytokine release. Thus cytokine release by cultured splenocytes activated by CD3 and CD28 was assessed for the cytokines IFNγ, IL-6, IL-10, IL-12 (p70), and TNFα (Tables 6-12). CVX-12 immunization increased IL-6 and IL-10 cytokine release from spleen T-cells in apoE^−/− mice. […] IL-10 release from gld.apoE^−/− splenocytes was decreased by CVX-12 immunization of gld.apoE^−/− mice on western diet.

[4] = test system: gld.apoE−/− mice; experiment: Relative anti-P210 IgM/IgG antibody levels in serum (ELISA); format: in vivo, mouse; settings: normal diet (ND), ± SEM
Experimental: Each animal dosed with a test article received subcutaneous primary immunization in the dorsal interscapular area at Day 0 (7 weeks of age), followed by a booster on Day 21 and 35 (10 and 12 weeks of age). CVX-3-84 was used to dose ApoE^−/− (n=20), gld mice (n=20). CVX-3-123 was used to dose gld.ApoE^−/− (n=30 on high cholesterol chow; n=30 on normal chow diet).
20 gld.ApoE^−/− mice in the positive control group received an oral dose of rosiglitazone at 10 mg/kg/day in normal chow starting on Day 0 (7 weeks of age) and continuing for the duration of the study period. Mice receiving Rosiglitazone were sacrificed at Day 126 (25 weeks of age).
Serum and urine was collected at day 63 of the study (16 weeks of age). Serum collected at day 63 of the study was analyzed for anti-P210 IgM and IgG antibodies. Levels of oxidized phospholipid was also measured in gld.apoE^−/− mice maintained on normal diet.
Serum and urine was collected at euthanasia. Endpoint serum was analyzed for anti-nuclear antibody (ANA) titers, total cholesterol, triglycerides, anti-P210 IgM antibodies, and anti-P210 IgG antibodies. Endpoint serum from gld.ApoE^−/− animals maintained on normal diet was also analyzed for anti-cardiolipin antibodies. Anti-nuclear antibody titers were tested using the NOVA-lite Hep2 ANA assay, and serum dilutions of 1:100, 1:1000, 1:10000, 1:30000, and 1:90000 were tested for nuclear-localized antibody reactivity to human epithelial cells. Reactivity was detected using FITC-conjugated goat anti-mouse IgG antibody. ANAs were scored based on the presence or absence of antibody signal at each titer. Total cholesterol was assessed using Cholesterol E reagent according to the manufacturer's protocol. Triglyceride levels were assessed with Triglyceride Reagent and with a glycerol standard. Anti-P210 antibodies were detected by ELISA using reconstituted P210 peptide.

In the case of CTB, the “central memory T cells in lymph node” value [1] is reported as 34.5±10.6%, the “central memory helper T cells (CD3+CD4+CD62L+CD44int-hi) in spleen” value [1] is reported as 19.4±5.2% and the “cytolytic T cell populations (CD3+CD8+CD62L+CD44int-hi) in spleen” value [1] is reported as 18.2±3.7%.

For “IL-1β: cytokine stimulus, 10 ng/ml [reference compound]”, the “release of Fas into culture medium” value [2] was “no effect” and the “release of TNF-R1” value [2] was “stimulated”.

CN(CCOc1ccc(CC2SC(=O)NC2=O)cc1)c1ccccn1 (stereo not shown) [Rosiglitazone] was tested, and the IFN-γ production ([3]; Stimulated) was 11419.9 pg/mL, the IL-6 production ([3]; Stimulated) was 385.0* pg/mL and the IL-10 production ([3]; Stimulated) was 1528.3 pg/mL. For the same molecule, the “IL-12 (p70) production” value ([3]; Stimulated) was 44.7 pg/mL, the IFN-γ production ([3]; Unstimulated) was 24.2* pg/mL and the IL-6 production ([3]; Unstimulated) was 255.9* pg/mL. For the same molecule, the IL-10 production ([3]; Unstimulated) was 196.0 pg/mL, the “IL-12 (p70) production” value ([3]; Unstimulated) was 89.2 pg/mL and the “TNFα Production from Spleen T-cells” value ([3]; Stimulated (CD3/CD28)) was 39.5 pg/mL. For the same molecule, the “TNFα Production from Spleen T-cells” value ([3]; Unstimulated) was 8.9 pg/mL, the “anti-P210 IgG” value ([4]; Endpoint) was 0.68 ± 0.07 OD at 405 nm and the “anti-P210 IgM” value ([4]; Endpoint) was 0.42 ± 0.06 ^a, c OD at 405 nm. For the same molecule, the “anti-P210 IgG” value ([4]; Midpoint) was 0.68 ± 0.07 OD at 405 nm and the “anti-P210 IgM” value ([4]; Midpoint) was 0.64 ± 0.03 OD at 405 nm.

For TNF-α [reference compound], the “release of Fas into culture medium” value [2] was “no effect” and the “release of TNF-R1” value [2] was “no effect”.

B1: Fas ligand: soluble Fas ligand used for death receptor activation of PBMC (protein)
chain: PSPPPEKKELRKVAHLTGKSNSRSMPLEWEDTYGIVLLSGVKYKKGGLVINETGLYFVYSKVYFRGQSCNNLPLSHKVYMRNSKYPQDLVMMEGKMMSYCTTGQMWARSSYLGAVFNLTSADHLYVNVSELSLVNFEESQTFFGLYKL
With B1 the “increase in the release of FAS” value ([2]; PBMCs from SLE patients) was 73%, the “frequency of apoptotic lymphocytes” value ([2]; PBMCs from healthy controls (not in PBMCs from SLE patients)) was “increased” and the “release of Fas into culture medium” value [2] was “stimulated”. The “release of TNF-R1” value [2] was “stimulated”.
